Molecules are shown by their SMILES.

A short description of the series: solvent given as SMILES.

Take `COc1ccc(Nc2nc(/C=C/c3ccccc3)[n+]([O-])c3c2CCCC3)cc1`: the fluorescence lifetime (in ClCCl) was 8.2 ns.

Regarding `O=C1OC(=O)c2ccc(N(c3ccccc3)c3ccc4ccc5cccc6ccc3c4c56)c3cccc1c23`, the fluorescence lifetime (in CCCCCC) came to 4.36 ns and the fluorescence lifetime (in c1ccccc1) worked out at 1.17 ns.

Turning to `CN(C)c1ccc(C2=Nc3scc(-c4ccc([N+](=O)[O-])cc4)[n+]3[B-](F)(F)O2)cc1`, the fluorescence lifetime (in C1CCOC1) was found to be 1.64 ns.

With `Cc1ccc(C2CC(c3ccc(O)cc3)=NN2c2ccc(S(N)(=O)=O)cc2)cc1` (stereo unspecified), the fluorescence lifetime runs as follows: (in C1CCOC1) 2.4 ns; (in C1COCCO1) 2.41 ns; (in CC#N) 2.32 ns; (in CC(C)O) 2.11 ns; (in CCO) 2.04 ns; (in CCOC(C)=O) 2.41 ns. The fluorescence lifetime stood at 2.59 ns (in CN(C)C=O), 1.66 ns (in CO), 2.56 ns (in CS(C)=O) and 3.35 ns (in O).

With `N#Cc1ccc(C=C(c2ccccc2)c2ccccc2)cc1`, the fluorescence lifetime (in C1CCOC1) turned out to be 31 ns.

Turning to `COc1ccc2c3c(OC)c4ccccc4c(OC)c3n(C)c2c1`, the fluorescence lifetime reads like this: (in C1CCCCC1) 14.3 ns; (in CC#N) 19.1 ns; (in CO) 18.3 ns; (in ClCCl) 12.1 ns.

Where the note is “in C1CCCCC1”, `Cc1cccc(-c2cccc(C)c2)c1` gave a fluorescence lifetime of 18 ns.

Regarding `CCn1c2ccccc2c2cc3c(cc21)c1ccccc1n3CC`, the fluorescence lifetime (in ClC(Cl)Cl) worked out at 2.9 ns.

Take `CSC1=C2C=C(c3cc4n(c3)[B-](F)(F)[N+]3=CC=CC3=C4c3c(C)cc(C)cc3C)C(C)=[N+]2[B-](F)(F)n2c(C)ccc21`: the fluorescence lifetime reads like this: (in C1CCCCC1) 2.67 ns; (in CC#N) 0.17 ns; (in CC(C)=O) 0.39 ns; (in CCOC(C)=O) 0.97 ns; (in Cc1ccccc1) 1.81 ns.

The compound `O=P1(c2ccccc2)c2cc(N3c4ccccc4Sc4ccccc43)ccc2-c2ccc(N3c4ccccc4Sc4ccccc43)cc21` had a fluorescence lifetime (in c1ccc2c(c1)c1ccccc1n2-c1ccc(-c2ccc(-n3c4ccccc4c4ccccc43)cc2)cc1) of 46.1 ns.

As for `F[B-]1(F)n2c(Nc3cccc4cccnc34)ccc2C(c2ccccc2)=C2C=CC(Cl)=[N+]21`, the fluorescence lifetime was found to be 3.21 ns (in C1CCCCC1) and 0.82 ns (in Cc1ccccc1).

Under “in ClCCl”, `CCCCn1c(-c2ccc(-c3nnc(-c4ccc(-c5nc6c7ccccc7c7ccccc7c6n5CCCC)cc4)o3)cc2)nc2c3ccccc3c3ccccc3c21` showed a fluorescence lifetime of 1.64 ns.

As to `Cc1ccc(-c2ccc(/C=C/c3ccccc3)cn2)nc1`, the fluorescence lifetime (in CC#N) came out at 1.06 ns.

As to `Cc1ccc(-c2ccc(/C=C/c3ccc(Br)n3C)cn2)nc1`, the fluorescence lifetime (in CC#N) was found to be 0.66 ns.

For `Oc1cccc2ccccc12`, the fluorescence lifetime (in C1CCCCC1) was determined as 15 ns.

Regarding `CC1(C)c2ccccc2N(c2ccc(-c3nc(-c4ccccc4)cc(-c4ccccc4)n3)cc2)c2ccccc21`, the fluorescence lifetime reads like this: (in Cc1ccccc1) 6.48 ns; (in ClCCl) 18.2 ns.

Turning to `COc1cc(OC)c(C2=C3C(C)=CC(C)=[N+]3[B-](F)(F)n3c(C)cc(C)c32)c(OC)c1`, the fluorescence lifetime reads like this: (in C1CCOC1) 5.7 ns; (in CCCCCC) 6.35 ns.

For the compound `[O-]c1c(-c2nc3ccccc3s2)cc2ccc3cccc4ccc1c2c34`, the fluorescence lifetime is, setting by setting: (in CC#N) 3.81 ns; (in CS(C)=O) 4.7 ns.

The compound `Cc1cc(C)c(C2=C3C=CC=[N+]3[B-]3(c4ccccc4)Oc4cc(O)cc5c6ccc(C)cc6c6cc2n3c6c45)c(C)c1` (stereo unspecified) came in with a fluorescence lifetime (in ClC(Cl)Cl) of 3 ns.

As to `COC(C)CC1=N/C(=C\c2cccc(N(C)C)c2)C(=O)N1C` (stereo unspecified), the fluorescence lifetime by setting is: (in C1CCOC1) 15.3 ns; (in CC#N) 7.7 ns; (in CCCCCC) 22.4 ns.

On to `Cc1cc(C2=C(c3c(C)sc(-c4ccc(-c5nc(-c6ccccc6)c(-c6ccccc6)[nH]5)cc4)c3C)C(F)(F)C(F)(F)C2(F)F)c(C)s1`, for which the fluorescence lifetime (in C1CCOC1) was determined as 0.54 ns.

`COC(=O)/C(C#N)=c1\s/c(=c2/s/c(=C(/C#N)C(=O)OC)c3cc(-c4ccccc4)sc23)c2sc(-c3ccccc3)cc12` gave a fluorescence lifetime (in Cc1ccccc1) of 2.82 ns.

`COc1ccc(C2=C(C)C3=C(c4c(-c5ccccn5)nc5ccccn45)c4c(C)cc(C)n4[B-](F)(F)[N+]3=C2C)cc1` displayed a fluorescence lifetime (in ClCCl) of 2.2 ns.

Consider `CCOC(=O)C1=CNC=C(C(=O)OCC)C1c1ccccc1`, for which the fluorescence lifetime is, setting by setting: (in C1CCOC1) 7.83 ns; (in CO) 13.8 ns.

As to `CC(C)(C)NC(=O)c1ccc2ccc3cccc4ccc1c2c34`, the fluorescence lifetime (in ClC(Cl)Cl) was determined as 7.55 ns.

On to `CCCCCCC(CCCCCC)N1C(=O)c2cccc3c(-c4ccc(OC)c5ccccc45)ccc(c23)C1=O`, for which the fluorescence lifetime reads like this: (in CCCCCC) 1.7 ns; (in CCCCCCCCCCCCCC) 1.83 ns; (in CCCCCCCCCCCO) 4.85 ns; (in CCCCO) 1.8 ns; (in CN(C)C=O) 3.85 ns; (in Cc1ccccc1) 1.53 ns. Under “in ClC(Cl)Cl”, this compound registered a fluorescence lifetime of 4.07 ns.

As for `O=C([O-])c1ccc(C2=c3cc4c5c(c3Oc3c2cc2c6c3CCCN6CCC2)CCC[N+]=5CCC4)c(C(=O)[O-])c1`, the fluorescence lifetime reads like this: (in CCO) 4.87 ns; (in O) 4.36 ns.

As to `O=C1c2ccccc2-c2ccc(N3CCN(c4ccccc4)CC3)c3cccc1c23`, the fluorescence lifetime is, setting by setting: (in C1CCCCC1) 7.85 ns; (in C1CCOC1) 2.59 ns; (in C1COCCO1) 8.98 ns; (in CC1COC(=O)O1) 0.09 ns; (in CC#N) 0.03 ns; (in CC(C)=O) 0.09 ns. This compound returned a fluorescence lifetime (in CCCCCCCCO) of 0.29 ns; a fluorescence lifetime (in CCCCCO) of 0.22 ns; a fluorescence lifetime (in CCCCO) of 0.16 ns; a fluorescence lifetime (in CCCO) of 0.22 ns; a fluorescence lifetime (in CCO) of 0.07 ns; a fluorescence lifetime (in CCOC(C)=O) of 2 ns. The fluorescence lifetime by setting is: (in CN(C)C=O) 0.06 ns; (in CO) 0.03 ns; (in CS(C)=O) 0.06 ns; (in Cc1ccccc1) 9.06 ns; (in ClC(Cl)Cl) 8.88 ns.

`CCn1c2ccccc2c2c3nsnc3c3c4ccccc4n(CC)c3c21` returned a fluorescence lifetime (in CN(C)C=O) of 1.07 ns, a fluorescence lifetime (in Cc1ccccc1) of 0.97 ns and a fluorescence lifetime (in ClCCl) of 1 ns.

`O=c1c2cccc3cccc(c32)c2nc3c(F)c(F)c(F)c(F)c3n12`: under “in ClCCl”, the fluorescence lifetime was found to be 9 ns.

Turning to `C/C=C/c1cccc(OC)c1`, the fluorescence lifetime (in CC#N) turned out to be 6.5 ns and the fluorescence lifetime (in CCCCCC) was 5.9 ns.

`Cc1cc(C)c(B(c2cc3c4c(c(B(c5c(C)cc(C)cc5C)c5c(C)cc(C)cc5C)cc5c4c2CCC5)CCC3)c2c(C)cc(C)cc2C)c(C)c1`: the fluorescence lifetime (in CCCCCC) was 14.6 ns.

`CCCCC(CC)Cn1c2cc(-c3ccc(N(c4ccccc4)c4ccccc4)cc3)c(C#N)cc2c2cc(C#N)c(-c3ccc(N(c4ccccc4)c4ccccc4)cc3)cc21` (stereo unspecified) came in with a fluorescence lifetime (in ClCCl) of 3.23 ns.

Under “in Cc1ccccc1”, `COC(=O)/C(C#N)=c1\s/c(=c2/s/c(=C(/C#N)C(=O)OC)c3cc(-c4ccc5c(c4)C(C)(C)c4ccccc4-5)sc23)c2sc(-c3ccc4c(c3)C(C)(C)c3ccccc3-4)cc12` came in with a fluorescence lifetime of 4.38 ns.

Under “in CC#N”, `CC(=O)OC[C@H]1O[C@@H](OCC#Cc2ccc(C3=C4C(C)=CC(/C=C/c5ccc([N+](C)(C)C)cc5)=[N+]4[B-](F)(F)n4c(/C=C/c5ccc([N+](C)(C)C)cc5)cc(C)c43)cc2)[C@H](OC(C)=O)C(OC(C)=O)[C@@H]1OC(C)=O` (stereo partly specified) showed a fluorescence lifetime of 5.4 ns.

The compound `C[n+]1ccc2c(ccc3c[n+](C)c4ccc5ccccc5c4c32)c1` yielded a fluorescence lifetime (in CC#N) of 10.2 ns.

Source of the values: the Deep4Chem optical property database.
